Measured values: patent US5563155A, “Individual stereosiomers of 7-[3-(aminoalkyl)-1-pyrrolidinyl]-quinolones and naphthyridones as antibacterial agents” (Warner-Lambert Company, priority 1995, dated 1996)
Converted amounts (≈) assume the structure as drawn. Read-outs that look alike come from different tables or passages of the source.

What was measured:
Strep. pheumoniae SV-1 [1] = assay: in vitro antibacterial activity, microtitration dilution (MIC), Strep. pneumoniae SV-1; type: cell-based; conditions: Streptococcus pneumoniae, SV1, read-out: minimum inhibiting concentration (MIC)
Summary of the method: (§1)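 Readout: lowest compound concentration inhibiting growth (MIC, μg/mL), measured by serial dilution in microtitration format.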

Ent. cloacae MA2646 = assay: in vitro antibacterial activity, microtitration dilution (MIC), Ent. cloacae MA2646; type: cell-based; conditions: Enterobacter cloacae, read-out: minimum inhibiting concentration (MIC)
Summary of the method: as §1

Strep. pheumoniae SV-1 [2] = assay: median protective dose in mice given lethal systemic infections, Strep. pneumoniae SV-1; type: in vivo; conditions: Streptococcus pneumoniae, single dose at time of challenge, read-out: median protective dose (PD50)
Description: (§2) The in vivo activity is obtained when the compounds are tested according to the procedure of Miller, et al (Proc. Soc. Exp. Biol. Med. 57, 261, 1944). The median protective dose (PD50) was determined in mice given lethal systemic infections. Single doses of compound were given at time of challenge.
(§3) By use of the above methods, the following minimum inhibiting concentration values (MICs in μg/mL), PD50 's in mg/kg, no effect phototoxicity dose in mg/kg and the cytotoxicity IC50 in μg/mL were obtained for representative enantiomers of the invention and compounds of the prior art as shown in the table.
(§4) The in vivo data as PD50 s are reported below the line of MICs for the same compound.

Klebs. pneumoniae MGH-2 = assay: in vitro antibacterial activity, microtitration dilution (MIC), Klebs. pneumoniae MGH-2; type: cell-based; conditions: Klebsiella pneumoniae, MGH2, read-out: minimum inhibiting concentration (MIC)
Summary of the method: as §1

Staph. aureus H 228 = assay: in vitro antibacterial activity, microtitration dilution (MIC), Staph. aureus H 228; type: cell-based; conditions: Staphylococcus aureus, H228, read-out: minimum inhibiting concentration (MIC)
Summary of the method: as §1

Staph. aureus UC-76 = assay: in vitro antibacterial activity, microtitration dilution (MIC), Staph. aureus UC-76; type: cell-based; conditions: Staphylococcus aureus, UC76, read-out: minimum inhibiting concentration (MIC)
Summary of the method: as §1

Strep. faecalis MGH-2 = assay: in vitro antibacterial activity, microtitration dilution (MIC), Strep. faecalis MGH-2; type: cell-based; conditions: Enterococcus faecalis, MGH2, read-out: minimum inhibiting concentration (MIC)
Summary of the method: as §1

Esch. coli Vogel [3] = assay: median protective dose in mice given lethal systemic infections, Esch. coli Vogel; type: in vivo; conditions: Escherichia coli, single dose at time of challenge, read-out: median protective dose (PD50)
Description: as §2, §3, §4

Pseud. aeruginosa UI-18 = assay: in vitro antibacterial activity, microtitration dilution (MIC), Pseud. aeruginosa UI-18; type: cell-based; conditions: Pseudomonas aeruginosa, UI18, read-out: minimum inhibiting concentration (MIC)
Summary of the method: as §1

Strep. pyogenes C-203 [4] = assay: in vitro antibacterial activity, microtitration dilution (MIC), Strep. pyogenes C-203; type: cell-based; conditions: Streptococcus pyogenes, C203, read-out: minimum inhibiting concentration (MIC)
Summary of the method: as §1

Esch. coli Vogel [5] = assay: in vitro antibacterial activity, microtitration dilution (MIC), Esch. coli Vogel; type: cell-based; conditions: Escherichia coli, read-out: minimum inhibiting concentration (MIC)
Summary of the method: as §1

[6] = cytotoxicity, hamster V-79 cells, colony reduction; type: cell-based; conditions: 3 hours treatment, colonies counted after 5 days, read-out: Cytotox (cytotoxicity IC50)
Description: The cytotoxicity data is obtained using hamster V-79 cells. The cells were suspended in tissue culture medium and grown overnight. Cells were treated with drug for 3 hours, washed free of drug and then replated, and the colonies counted after 5 days. The concentration of drug that reduced colones by 50% relative to control was recorded.
as §3

Prot. rettgeri M 1771 = assay: in vitro antibacterial activity, microtitration dilution (MIC), Prot. rettgeri M 1771; type: cell-based; conditions: Providencia rettgeri, M1771, read-out: minimum inhibiting concentration (MIC)
Summary of the method: as §1

in vivo = assay: in vivo; parameters: species or system mice; conditions: mouse, po
Description: The phototoxicity data is obtained using depilated mice. The compound was administered orally each day for four successive days, followed each day by 3 hours of UVA radiation. The mice were examined for any positive signs (redness, erythema) relative to control animals. The no effect dose and the 50% effect dose were determined. By use of the above methods, the following minimum inhibiting concentration values (MICs in μg/mL), PD50 's in mg/kg, no effect phototoxicity dose in mg/kg and the cytotoxicity IC50 in μg/mL were obtained for representative enantiomers of the invention and compounds of the prior art as shown in the table.

Strep. pyogenes C-203 [7] = assay: median protective dose in mice given lethal systemic infections, Strep. pyogenes C-203; type: in vivo; conditions: Streptococcus pyogenes, single dose at time of challenge, read-out: median protective dose (PD50)
Description: as §2, §3, §4

Row | Compound | MIC (Strep. pheumoniae SV-1 [1]) [µg/mL] | MIC (Ent. cloacae MA2646) [µg/mL] | ED50 (Strep. pheumoniae SV-1 [2]; SV1, PO) [mg/kg] | ED50 (Strep. pheumoniae SV-1 [2]; SV1, SC) [mg/kg] | MIC (Klebs. pneumoniae MGH-2) [µg/mL] | MIC (Staph. aureus H 228) [µg/mL] | MIC (Staph. aureus UC-76) [µg/mL] | MIC (Strep. faecalis MGH-2) [µg/mL] | ED50 (Esch. coli Vogel [3]; PO) [mg/kg] | ED50 (Esch. coli Vogel [3]; SC) [mg/kg] | MIC (Pseud. aeruginosa UI-18) [µg/mL] | MIC (Strep. pyogenes C-203 [4]) [µg/mL] | MIC (Esch. coli Vogel [5]) [µg/mL] | CC50 at 3 h [6] [µg/mL] | MIC (Prot. rettgeri M 1771) [µg/mL] | NOAEL at 96 h (in vivo) [mg/kg] | ED50 (Strep. pyogenes C-203 [7]; C203, PO) [mg/kg] | ED50 (Strep. pyogenes C-203 [7]; C203, SC) [mg/kg]
1 | C[C@@H](N)[C@H]1CCN(c2cc3c(cc2F)c(=O)c(C(=O)O)cn3C2CC2)C1 [Example 1, 3S,1R-1-cyclopropyl-6-fluoro-7-[3-(1-aminoethyl)-1-pyrrolidinyl]-1,4-dihydro-4-oxo-3-quinolinecarboxylic acid] | 0.1 (≈ 0.278 µM) | 0.2 (≈ 0.556 µM) | > 100 | 3 | 0.4 (≈ 1.11 µM) | 0.4 (≈ 1.11 µM) | 0.05 (≈ 0.139 µM) | 0.2 (≈ 0.556 µM) | 35 | 2 | 1.5 (≈ 4.17 µM) | 0.1 (≈ 0.278 µM) | 0.2 (≈ 0.556 µM) | 160 (≈ 445 µM) | 0.8 (≈ 2.23 µM) |  |  | 
2 | C[C@@H]([C@@H]1CCN(c2cc3c(cc2F)c(=O)c(C(=O)O)cn3C2CC2)C1)N(C)C [Example 73] | 0.05 (≈ 0.129 µM) | 0.2 (≈ 0.516 µM) |  |  | 0.2 (≈ 0.516 µM) | 0.1 (≈ 0.258 µM) | 0.05 (≈ 0.129 µM) | 0.1 (≈ 0.258 µM) | 5 | 4 | 1.6 (≈ 4.13 µM) | 0.05 (≈ 0.129 µM) | 0.1 (≈ 0.258 µM) |  | 0.8 (≈ 2.06 µM) | < 30 | 4 | 4
3 | C[C@@H](N)[C@@H]1CCN(c2cc3c(cc2F)c(=O)c(C(=O)O)cn3C2CC2)C1 [Example 4, 3R,1R-1-cyclopropyl-6-fluoro-7-[3-(1-aminoethyl)-1-pyrrolidinyl]-1,4-dihydro-4-oxo-3-quinolinecarboxylic acid] | 0.025 (≈ 0.0696 µM) | 0.2 (≈ 0.556 µM) | 105 | 2 | 0.4 (≈ 1.11 µM) | 0.2 (≈ 0.556 µM) | 0.05 (≈ 0.139 µM) | 0.1 (≈ 0.278 µM) | 72 | 2 | 1.6 (≈ 4.45 µM) | 0.1 (≈ 0.278 µM) | 0.1 (≈ 0.278 µM) | 140 (≈ 390 µM) | 0.8 (≈ 2.23 µM) |  |  | 
4 | CCN[C@H](C)[C@@H]1CCN(c2c(F)cc3c(=O)c(C(=O)O)cn(C4CC4)c3c2OC)C1 [Example 17] | 0.003 (≈ 0.00719 µM) | 0.2 (≈ 0.479 µM) |  |  | 0.4 (≈ 0.958 µM) | 0.013 (≈ 0.0311 µM) | 0.003 (≈ 0.00719 µM) | 0.013 (≈ 0.0311 µM) | 14 | 4 | 3.1 (≈ 7.43 µM) | 0.003 (≈ 0.00719 µM) | 0.2 (≈ 0.479 µM) | 130 (≈ 311 µM) | 0.8 (≈ 1.92 µM) | > 100 | 2 | 0.6
5 | C[C@H](N)[C@@H]1CCN(c2cc3c(cc2F)c(=O)c(C(=O)O)cn3C2CC2)C1 [Example 3, 3R,1S-1-cyclopropyl-6-fluoro-7-[3-(1-aminoethyl)-1-pyrrolidinyl]-1,4-dihydro-4-oxo-3-quinolinecarboxylic acid] | 0.003 (≈ 0.00835 µM) | 0.05 (≈ 0.139 µM) | 11 | 0.7 | 0.1 (≈ 0.278 µM) | 0.05 (≈ 0.139 µM) | 0.003 (≈ 0.00835 µM) | 0.025 (≈ 0.0696 µM) | 47 | 0.9 | 0.4 (≈ 1.11 µM) | 0.003 (≈ 0.00835 µM) | 0.05 (≈ 0.139 µM) | 42 (≈ 117 µM) | 0.2 (≈ 0.556 µM) |  |  | 
6 | CCN[C@@H](C)[C@@H]1CCN(c2nc3c(cc2F)c(=O)c(C(=O)O)cn3-c2ccc(F)cc2F)C1 [Example 50, 3R,1S-7-[3-(1-N-ethylaminoethyl)-1-pyrrolidinyl]-1-(2,4-difluorophenyl)-6-fluoro-1,4-dihydro-4-oxo-1,8-naphthyridine-3-carboxylic acid] | 0.1 (≈ 0.217 µM) | 0.8 (≈ 1.74 µM) | 2 | 2 | 0.8 (≈ 1.74 µM) | 0.05 (≈ 0.109 µM) | 0.013 (≈ 0.0282 µM) | 0.2 (≈ 0.434 µM) |  |  | 3.1 (≈ 6.73 µM) | 0.1 (≈ 0.217 µM) | 0.4 (≈ 0.869 µM) |  | 1.6 (≈ 3.47 µM) |  |  | 
